In the first assay the target is indoleamine 2, 3-dioxygenase (IDO1) (Homo sapiens, UniProt P14902). In words: PBMC IDO1 assay (kynurenine via mass spectrometry). The format is cell-based.
indoleamine 2, 3-dioxygenase (IDO1), sequence (P14902 whole entry): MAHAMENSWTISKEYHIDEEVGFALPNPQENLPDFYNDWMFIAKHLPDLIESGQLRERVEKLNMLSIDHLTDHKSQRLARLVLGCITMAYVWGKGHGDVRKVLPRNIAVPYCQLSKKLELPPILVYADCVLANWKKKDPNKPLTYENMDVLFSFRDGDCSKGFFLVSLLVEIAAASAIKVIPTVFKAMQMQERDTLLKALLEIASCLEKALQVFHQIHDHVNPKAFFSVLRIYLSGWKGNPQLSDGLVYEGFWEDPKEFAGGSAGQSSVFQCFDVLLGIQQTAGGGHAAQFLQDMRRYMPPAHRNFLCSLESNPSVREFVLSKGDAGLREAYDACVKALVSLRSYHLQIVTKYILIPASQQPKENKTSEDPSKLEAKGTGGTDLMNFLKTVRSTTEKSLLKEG
Settings: not given
On the procedure:
Compounds of the present invention were tested via high-throughput cellular assays utilizing detection of kynurenine via mass spectrometry and cytotoxicity as end-points. For the mass spectrometry and cytotoxicity assays, human peripheral blood mononuclear cells (PBMC) (PB003F; AllCells®, Alameda, Calif.) were stimulated with human interferon-γ (IFN-γ) (Sigma-Aldrich Corporation, St. Louis, Mo.) and lipopolysaccharide from Salmonella minnesota (LPS) (Invivogen, San Diego, Calif.) to induce the expression of indoleamine 2, 3-dioxygenase (IDO1). Compounds with IDO1 inhibitory properties decreased the amount of kynurenine produced by the cells via the tryptophan catabolic pathway. Cellular toxicity due to the effect of compound treatment was measured using CellTiter-Glo® reagent (CTG) (Promega Corporation, Madison, Wis.), which is based on luminescent detection of ATP, an indicator of metabolically active cells.
In preparation for the assays, test compounds were serially diluted 3-fold in DMSO from a typical top concentration of 5 mM and plated at 0.5 μL in 384-well, polystyrene, clear bottom, tissue culture treated plates with lids (Greiner Bio-One, Kremsmünster, Austria) to generate 11-point dose response curves. Low control wells (0% kynurenine or 100% cytotoxicity) contained either 0.5 μL of DMSO in the presence of unstimulated (-IFN-γ/-LPS) PBMCs for the mass spectrometry assay or 0.5 μL of DMSO in the absence of cells for the cytotoxicity assay, and high control wells (100% kynurenine or 0% cytotoxicity) contained 0.5 μL of DMSO in the presence of stimulated (+IFN-γ/+LPS) PBMCs for both the mass spectrometry and cytotoxicity assays.
Frozen stocks of PBMCs were washed and recovered in RPMI 1640 medium (Thermo Fisher Scientific, Inc., Waltham, Mass.) supplemented with 10% v/v heat-inactivated fetal bovine serum (FBS) (Thermo Fisher Scientific, Inc., Waltham, Mass.), and 1× penicillin-streptomycin antibiotic solution (Thermo Fisher Scientific, Inc., Waltham, Mass.). The cells were diluted to 1,000,000 cells/mL in the supplemented RPMI 1640 medium. 50 μL of either the cell suspension, for the mass spectrometry assay, or medium alone, for the cytotoxicity assay, were added to the low control wells, on the previously prepared 384-well compound plates, resulting in 50,000 cells/well or 0 cells/well respectively. IFN-γ and LPS were added to the remaining cell suspension at final concentrations of 100 ng/ml and 50 ng/ml respectively, and 50 μL of the stimulated cells were added to all remaining wells on the 384-well compound plates. The plates, with lids, were then placed in a 37° C., 5% CO2 humidified incubator for 2 days.
Following incubation, the 384-well plates were removed from the incubator and allowed to equilibrate to room temperature for 30 minutes. For the cytotoxicity assay, CellTiter-Glo® was prepared according to the manufacturer's instructions, and 40 μL were added to each plate well. After a twenty minute incubation at room temperature, luminescence was read on an EnVision® Multilabel Reader (PerkinElmer Inc., Waltham, Mass.). For the mass spectrometry assay, 10 μL of supernatant from each well of the compound-treated plates were added to 40 μL of acetonitrile, containing 10 μM of an internal standard for normalization, in 384-well, polypropylene, V-bottom plates (Greiner Bio-One, Kremsmünster, Austria) to extract the organic analytes. Following centrifugation at 2000 rpm for 10 minutes, 10 μL from each well of the acetonitrile extraction plates were added to 90 μL of sterile, distilled H2O in 384-well, polypropylene, V-bottom plates for analysis of kynurenine and the internal standard on the RapidFire 300 (Agilent Technologies, Santa Clara, Calif.) and 4000 QTRAP MS (SCIEX, Framingham, Mass.). MS data were integrated using Agilent Technologies' RapidFire Integrator software, and data were normalized for analysis as a ratio of kynurenine to the internal standard. […]
`COc1ncccc1OC(=O)N1CCC([C@@H](CC(C)C)NC(=O)c2ccc(F)cc2)CC1` [Example 105, (R)-2-methoxypyridin-3-yl 4-(1-(4-fluorobenzamido)-3-methylbutyl)piperidine-1-carboxylate] had an IC50 of 1.26 nM.

Take `Cc1ncccc1OC(=O)N1CCC(C(CC(C)C)NC(=O)c2ccc(F)cc2)CC1` (centres unmarked) [Example 18, 2-methylpyridin-3-yl 4-{1-[(4-fluorophenyl)formamido]-3-methylbutyl}piperidine-1-carboxylate]: the IC50 is 3.16 nM.

For the molecule `CC(C)CC(NC(=O)c1ccc(F)cc1)C1CCN(C(=O)Oc2cccnc2F)CC1` (centres unmarked) [Example 22, 2-fluoropyridin-3-yl 4-{1-[(4-fluorophenyl)formamido]-3-methylbutyl}piperidine-1-carboxylate], the IC50 was 3.98 nM.

In turn, `CC(C)CC(NC(=O)c1ccc(F)cc1)C1CCN(C(=O)Oc2cncc(F)c2)CC1` (centres unmarked) [Example 45, 5-fluoropyridin-3-yl 4-{1-[(4-fluorophenyl)formamido]-3-methylbutyl}piperidine-1-carboxylate] had an IC50 of 10 nM.

As to `COc1ncccc1OC(=O)N1CCC([C@H](NC(=O)c2ccc(Cl)cc2)c2ccccc2)CC1` [Example 49, 2-methoxypyridin-3-yl 4-[(S)-[(4-chlorophenyl)formamido](phenyl)methyl]piperidine-1-carboxylate], the IC50 was 10 nM.

Staying with this assay, now noted: human PBMC stimulated with IFN-γ and LPS, 2 days, kynurenine by mass spectrometry; recorded as pIC50.
In the case of `COc1ccc(OC(=O)N2CCC(C(NC(=O)c3ccc(F)cc3)c3ccncc3)CC2)cn1` (centres unmarked) [Example 99, 6-methoxpyridin-3-yl 4-{[(4-fluorophenyl)formamido](pyridin-4-yl)methyl}piperidine-1-carboxylate], the “PBMC PXC50_” value stood at 5.6.

The assay is the same for the next values; noted with them: human PBMC stimulated with IFN-γ and LPS, 2 days, kynurenine by mass spectrometry; recorded as pIC50; read-out: PBMC PXC50_ (converted).
Consider `CC(C)CC(NC(=O)c1ccc(F)cc1)C1CCN(C(=O)Oc2ccncc2F)CC1` (centres unmarked) [Example 47, 3-fluoropyridin-4-yl 4-{1-[(4-fluorophenyl)formamido]-3-methylbutyl}piperidine-1-carboxylate], for which the IC50 was 10 nM.

Consider `Cc1ncnc(C)c1OC(=O)N1CCC(C(CC(C)C)NC(=O)c2ccc(Cl)cc2)CC1` (centres unmarked) [Example 15, 4,6-dimethylpyrimidin-5-yl 4-{1-[(4-chlorophenyl)formamido]-3-methylbutyl}piperidine-1-carboxylate], for which the IC50 is 2.51 nM.

Turning to `Cc1c(F)cccc1OC(=O)N1CCC([C@H](C)NC(=O)c2ccc(Cl)s2)CC1` [Example 92, 3-fluoro-2-methylphenyl 4-[(1S)-1-[(5-chlorothiophen-2-yl)formamido]ethyl]piperidine-1-carboxylate], the IC50 is 631 nM.

Consider `CC(C)C[C@H](NC(=O)c1ccc(Cl)s1)C1CCN(C(=O)Oc2ccccc2)CC1` [Example 58, phenyl 4-[(1S)-1-[(5-chlorothiophen-2-yl)formamido]-3-methylbutyl]piperidine-1-carboxylate], for which the IC50 is 39.8 nM.

In the case of `Cc1c(F)cccc1OC(=O)N1CCC(C(NC(=O)c2ccc(F)cc2)C2CC2)CC1` (centres unmarked) [Example 61, 3-fluoro-2-methylphenyl 4-{cyclopropyl[(4-fluorophenyl)formamido]methyl}piperidine-1-carboxylate], the IC50 was 63.1 nM.

With `C#Cc1ccc(C(=O)NC(c2ccccc2)C2CCN(C(=O)OC(C)(C)C)CC2)cc1` (centres unmarked) [Example 78, tert-butyl 4-{[(4-ethynylphenyl)formamido](phenyl)methyl}piperidine-1-carboxylate], the IC50 was 251 nM.

With `CC(C)CC(NC(=O)c1ccc(F)cc1)C1CCN(C(=O)Oc2ccc(Cl)cc2)CC1` (centres unmarked) [Example 59, 4-chlorophenyl 4-{1-[(4-fluorophenyl)formamido]-3-methylbutyl}piperidine-1-carboxylate], the IC50 was 50.1 nM.

On to `CC(C)CC(NC(=O)c1ccc(F)cc1)C1CCN(C(=O)Oc2cccc(C#N)c2F)CC1` (centres unmarked) [Example 41, 3-cyano-2-fluorophenyl 4-{1-[(4-fluorophenyl)formamido]-3-methylbutyl}piperidine-1-carboxylate], for which the IC50 is 7.94 nM.

With `CC(C)C[C@@H](NC(=O)c1ccc(F)cc1)C1CCN(C(=O)Oc2ccccc2)CC1` [Example 27, phenyl 4-[(1R)-1-[(4-fluorophenyl)formamido]-3-methylbutyl]piperidine-1-carboxylate], the IC50 is 5.01 nM.

For the molecule `C[C@@H](NC(=O)c1ccc(Cl)s1)C1CCN(C(=O)Oc2ccccc2)CC1` [Example 38, phenyl 4-[(1R)-1-[(5-chlorothiophen-2-yl)formamido]ethyl]piperidine-1-carboxylate], the IC50 was 7.94 nM.

Consider `CC(C)C[C@H](NC(=O)c1ccc(F)cc1)C1CCN(C(=O)Oc2ccccc2)CC1` [Example 69, phenyl 4-[(1S)-1-[(4-fluorophenyl)formamido]-3-methylbutyl]piperidine-1-carboxylate], for which the IC50 is 126 nM.

Take `O=C(NC(c1ccncc1)C1CCN(C(=O)Oc2ccccc2)CC1)c1ccc(F)cc1` (centres unmarked) [Example 65, phenyl 4-{[(4-fluorophenyl)formamido](pyridin-4-yl)methyl}piperidine-1-carboxylate]: the IC50 is 100 nM.

On to `Cc1c(F)cccc1OC(=O)N1CCC(C(CC(C)C)NC(=O)c2ccc(F)cc2)CC1` (centres unmarked) [Example 9, 3-fluoro-2-methylphenyl 4-{1-[(4-fluorophenyl)formamido]-3-methylbutyl}piperidine-1-carboxylate], for which the IC50 is 2.51 nM.

`COc1ccc(C(=O)NC(c2ccccc2)C2CCN(C(=O)Oc3ccccc3)CC2)cc1F` (centres unmarked) [Example 57, phenyl 4-{[(3-fluoro-4-methoxyphenyl)formamido](phenyl)methyl}piperidine-1-carboxylate]: the IC50 is 39.8 nM.

Turning to `O=C(N[C@H](C1CC1)C1CCN(C(=O)Oc2ccccc2)CC1)c1ccc(Cl)s1` [Example 23, phenyl 4-[(R)-[(5-chlorothiophen-2-yl)formamido](cyclopropyl)methyl]piperidine-1-carboxylate], the IC50 was 3.98 nM.

`Cc1ccc(C(=O)NC(C2CC2)C2CCN(C(=O)Oc3c(C)ncnc3C)CC2)s1` (stereo in doubt) [Example 113, (S)-4,6-dimethylpyrimidin-5-yl 4-(cyclopropyl(5-methylthiophene-2-carboxamido)methyl)piperidine-1-carboxylate]: the IC50 is 12.6 nM.

Take `O=C(NC(c1ccccc1)C1CCN(C(=O)Oc2ccccc2)CC1)c1ccc(C(F)(F)F)cn1` (centres unmarked) [Example 88, phenyl 4-[phenyl({[5-(trifluoromethyl)pyridin-2-yl]formamido})methyl]piperidine-1-carboxylate]: the IC50 was 631 nM.

Regarding `CC(C)CC(NC(=O)c1ccc(Cl)s1)C1CCN(C(=O)Oc2ccccc2)CC1` (centres unmarked) [Example 16, phenyl 4-{1-[(5-chlorothiophen-2-yl)formamido]-3-methylbutyl}piperidine-1-carboxylate], the IC50 was 3.16 nM.

With `Cc1nccc(OC(=O)N2CCC([C@H](NC(=O)c3ccc(Cl)cc3)c3ccccc3)CC2)c1C` [Example 20, 2,3-dimethylpyridin-4-yl 4-[(S)-[(4-chlorophenyl)formamido](phenyl)methyl]piperidine-1-carboxylate], the IC50 was 3.98 nM.

For `Cc1ncnc(C)c1OC(=O)N1CCC([C@@H](CC(C)C)NC(=O)c2ccc(Cl)cc2)CC1` [Example 107, (R)-4,6-dimethylpyrimidin-5-yl 4-(1-(4-chlorobenzamido)-3-methylbutyl)piperidine-1-carboxylate], the IC50 was 1.58 nM.

For the origin of these results see patent US10927078B2, “Modulators of indoleamine 2,3-dioxygenase” (GLAXOSMITHKLINE INTELLECTUAL PROPERTY DEVELOPMENT LIMITED, priority 2017, dated 2021).
